Source: the supplement of paper PMC5908809

What was measured:
[1] = system: normal primary NK cells, pool 2 (3 donors) (IL-2 2.5 ng/mL); experiment: drug sensitivity score (DSS) (DSS units); higher = more sensitive; extreme values may be limits of the assay; conditions: 72 h
NK-92 (IL-2 2.5 ng/mL) [2] = experiment: as above; conditions: 72 h
[3] = system: normal primary NK cells, pool 1 (3 donors) (IL-2 2.5 ng/mL); experiment: as above; conditions: 72 h
IMC-1 (IL-2 20 ng/mL) [4] = experiment: as above; conditions: 72 h
SNK-6 (IL-2 2.5 ng/mL) [5] = experiment: as above; conditions: 72 h
[6] = system: normal primary NK cells, pool 1 (3 donors), resting (IL-2 0 ng/mL); experiment: as above; conditions: 72 h
KAI3 (IL-2 2.5 ng/mL) [7] = experiment: as above; conditions: 72 h
NK-YS (IL-2 2.5 ng/mL) [8] = experiment: as above; conditions: 72 h
KHYG-1 (IL-2 2.5 ng/mL) [9] = experiment: as above; conditions: 72 h
DERL-7 (IL-2 2.5 ng/mL) [10] = experiment: as above; conditions: 72 h
[11] = system: normal primary NK cells, pool 3 (3 donors) (IL-2 2.5 ng/mL); experiment: as above; conditions: 72 h
NKL (IL-2 2.5 ng/mL) [12] = experiment: as above; conditions: 72 h
YT (IL-2 2.5 ng/mL) [13] = experiment: as above; conditions: 72 h
[14] = system: normal NK cells expanded with K562-aAPC; experiment: percent inhibition of viability; higher = more inhibition; conditions: 72 h, IL-2 2.5 ng/mL
Method: (§1)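 Drug sensitivity and resistance testing on K562-aAPC-expanded normal NK cells: 5 concentrations (10-fold steps over a 10,000-fold range), 72 h at 37 °C, viability by CellTiter-Glo normalised to DMSO and benzethonium chloride controls; DSS from the fitted curve.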

[15] = system: normal primary NK cells, pool 2 (3 donors) (IL-2 2.5 ng/mL); experiment: as above; conditions: 72 h
NK-92 (IL-2 2.5 ng/mL) [16] = experiment: as above; conditions: 72 h
[17] = system: normal primary NK cells, pool 1 (3 donors) (IL-2 2.5 ng/mL); experiment: as above; conditions: 72 h
IMC-1 (IL-2 20 ng/mL) [18] = experiment: as above; conditions: 72 h
SNK-6 (IL-2 2.5 ng/mL) [19] = experiment: as above; conditions: 72 h
[20] = system: normal primary NK cells, pool 1 (3 donors), resting (IL-2 0 ng/mL); experiment: as above; conditions: 72 h
KAI3 (IL-2 2.5 ng/mL) [21] = experiment: as above; conditions: 72 h
NK-YS (IL-2 2.5 ng/mL) [22] = experiment: as above; conditions: 72 h
KHYG-1 (IL-2 2.5 ng/mL) [23] = experiment: as above; conditions: 72 h
DERL-7 (IL-2 2.5 ng/mL) [24] = experiment: as above; conditions: 72 h
[25] = system: normal primary NK cells, pool 3 (3 donors) (IL-2 2.5 ng/mL); experiment: as above; conditions: 72 h
NKL (IL-2 2.5 ng/mL) [26] = experiment: as above; conditions: 72 h
YT (IL-2 2.5 ng/mL) [27] = experiment: as above; conditions: 72 h
[28] = system: normal NK cells expanded with K562-aAPC; experiment: drug sensitivity score (DSS) (DSS units); higher = more sensitive; extreme values may be limits of the assay; conditions: 72 h; IL-2 2.5 ng/mL
Method: as §1

CN1CCN(c2nc(C3=C(c4c[nH]c5ccccc45)C(=O)NC3=O)c3ccccc3n2)CC1 [Sotrastaurin] (max concentration tested 10000 nM)
Conditions	drug sensitivity score
DERL-7 (IL-2 2.5 ng/mL) [10]	9.93
IMC-1 (IL-2 20 ng/mL) [4]	0.22
KAI3 (IL-2 2.5 ng/mL) [7]	6.26
KHYG-1 (IL-2 2.5 ng/mL) [9]	7.45
NK-92 (IL-2 2.5 ng/mL) [2]	6.04
NK-YS (IL-2 2.5 ng/mL) [8]	4.32
NKL (IL-2 2.5 ng/mL) [12]	11.4
SNK-6 (IL-2 2.5 ng/mL) [5]	2.08
YT (IL-2 2.5 ng/mL) [13]	3.65
[1]	3.66
[3]	7.19
[6]	0
[11]	2.75
[28]	5.13

percent inhibition of viability [%]
Conditions	1 nM	10 nM	100 nM	1000 nM	10000 nM
DERL-7 (IL-2 2.5 ng/mL) [24]	-4.78	-0.35	2.08	40.8	89
IMC-1 (IL-2 20 ng/mL) [18]	-5.62	-0.79	-3.9	0.37	14.4
KAI3 (IL-2 2.5 ng/mL) [21]	1.68	5.93	0.83	15.7	68.5
KHYG-1 (IL-2 2.5 ng/mL) [23]	-1.7	2.28	1.66	16.2	86.7
NK-92 (IL-2 2.5 ng/mL) [16]	-7.26	-8.85	-22.3	14.4	67.9
NK-YS (IL-2 2.5 ng/mL) [22]	-6.15	-1.7	5.97	11.9	48.6
NKL (IL-2 2.5 ng/mL) [26]	-0.06	2.68	21.7	45.5	80
SNK-6 (IL-2 2.5 ng/mL) [19]	-17.8	-16.5	-5.18	-2.38	44.5
YT (IL-2 2.5 ng/mL) [27]	-2.44	0.13	0.38	16.3	34.6
[14]	-1.03	-1.43	5.74	19.1	54.6
[15]	-13.5	-3.77	5.41	15.2	41.4
[17]	-5.39	7.06	18.6	27.9	44.3
[20]	-32.7	2.96	-3.23	9.18	-53.6
[25]	-3.26	-0.15	8.22	5.07	38.6

CN(C)C(=N)NC(=N)N [Metformin] (max concentration tested 100000 nM)
Conditions	drug sensitivity score
IMC-1 (IL-2 20 ng/mL) [4]	0
[1]	1.13
[11]	0
[28]	0

percent inhibition of viability [%]
Conditions	10 nM	100 nM	1000 nM	10000 nM	100000 nM
IMC-1 (IL-2 20 ng/mL) [18]	-3.89	-0.13	-3.1	-1.36	5.51
[14]	-6.08	-6.07	-1.23	6.39	2.64
[15]	-3.45	0.32	10.6	8.75	12.4
[25]	-3.35	0.87	5.02	0.46	8.34

N[C@@H](Cc1ccc(N(CCCl)CCCl)cc1)C(=O)O [Melphalan] (max concentration tested 12500 nM)
Conditions	drug sensitivity score
IMC-1 (IL-2 20 ng/mL) [4]	0
[1]	0
[11]	0
[28]	0

percent inhibition of viability [%]
Conditions	1.25 nM	12.5 nM	125 nM	1250 nM	12500 nM
IMC-1 (IL-2 20 ng/mL) [18]	-3.81	-2.31	-1.39	0.63	0.47
[14]	-1.69	-2.91	-0.58	0.8	6.31
[15]	-5.43	-5.03	-6.41	7.99	1.1
[25]	-7.72	-2.35	-4.09	0.34	3.45

CC(C)NC[C@@H](C(=O)N1CCN(c2ncnc3c2[C@H](C)C[C@H]3O)CC1)c1ccc(Cl)cc1 [Ipatasertib] (max concentration tested 10000 nM)
Conditions	drug sensitivity score
IMC-1 (IL-2 20 ng/mL) [4]	0
[1]	3.09
[11]	2.08
[28]	3.79

percent inhibition of viability [%]
Conditions	1 nM	10 nM	100 nM	1000 nM	10000 nM
IMC-1 (IL-2 20 ng/mL) [18]	0.54	2.26	1.36	0.96	9.26
[14]	4.44	5.94	6.06	17.9	39.6
[15]	-8.24	-4.37	0.07	8.84	36
[25]	5.55	1.78	8.02	9.98	29.5

CC(C)N(C[C@H]1O[C@@H](n2cnc3c(N)ncnc32)[C@H](O)[C@@H]1O)[C@H]1C[C@@H](CCc2nc3cc(C(C)(C)C)ccc3[nH]2)C1 [EPZ-5676] (max concentration tested 1000 nM)
Conditions	drug sensitivity score
DERL-7 (IL-2 2.5 ng/mL) [10]	0
KAI3 (IL-2 2.5 ng/mL) [7]	0.23
KHYG-1 (IL-2 2.5 ng/mL) [9]	1.32
NK-92 (IL-2 2.5 ng/mL) [2]	1.76
NK-YS (IL-2 2.5 ng/mL) [8]	0.65
NKL (IL-2 2.5 ng/mL) [12]	3.3
SNK-6 (IL-2 2.5 ng/mL) [5]	2.24
YT (IL-2 2.5 ng/mL) [13]	0.67
[3]	1.75
[6]	0

percent inhibition of viability [%]
Conditions	DERL-7 (IL-2 2.5 ng/mL) [24]	KAI3 (IL-2 2.5 ng/mL) [21]	KHYG-1 (IL-2 2.5 ng/mL) [23]	NK-92 (IL-2 2.5 ng/mL) [16]	NK-YS (IL-2 2.5 ng/mL) [22]	NKL (IL-2 2.5 ng/mL) [26]	SNK-6 (IL-2 2.5 ng/mL) [19]	YT (IL-2 2.5 ng/mL) [27]	[17]	[20]
0.1 nM	0.43	-1.4	-0.41	-12.3	-3.52	0.4	-2.4	-1.48	2.06	9.51
1 nM	5.23	-5	1.41	-21.5	-3.4	-6	4.63	-5.01	11	20.3
10 nM	1.69	-1.28	-1.91	-14.1	2.56	-2.76	8.19	-2.34	9.38	21
100 nM	4.27	5.24	7.32	5.88	4.51	18.4	3.31	7.03	13.4	20.5
1000 nM	-4.86	11.9	19.1	24.7	16.4	28.7	35.8	14.4	15.7	23.9

CC(C)NC[C@@H](C(=O)N1CCN(c2ncnc3c2[C@H](C)C[C@H]3O)CC1)c1ccc(Cl)cc1 [GDC-0068] (max concentration tested 10000 nM)
Conditions	drug sensitivity score
DERL-7 (IL-2 2.5 ng/mL) [10]	9.75
KAI3 (IL-2 2.5 ng/mL) [7]	0
KHYG-1 (IL-2 2.5 ng/mL) [9]	1.8
NK-92 (IL-2 2.5 ng/mL) [2]	1.5
NK-YS (IL-2 2.5 ng/mL) [8]	1.05
NKL (IL-2 2.5 ng/mL) [12]	0.78
SNK-6 (IL-2 2.5 ng/mL) [5]	0.68
YT (IL-2 2.5 ng/mL) [13]	0
[3]	1.57
[6]	3.04

percent inhibition of viability [%]
Conditions	DERL-7 (IL-2 2.5 ng/mL) [24]	KAI3 (IL-2 2.5 ng/mL) [21]	KHYG-1 (IL-2 2.5 ng/mL) [23]	NK-92 (IL-2 2.5 ng/mL) [16]	NK-YS (IL-2 2.5 ng/mL) [22]	NKL (IL-2 2.5 ng/mL) [26]	SNK-6 (IL-2 2.5 ng/mL) [19]	YT (IL-2 2.5 ng/mL) [27]	[17]	[20]
1 nM	-2.5	12.9	7.35	1.45	7.4	2.85	-1.73	10.5	5.46	10.8
10 nM	3.47	16.7	8.11	-2.57	4.06	7.83	-7.94	10.4	-2.99	1.35
100 nM	-3.9	21.2	10.8	7.49	8.96	4.25	17.9	9.38	2.75	6.46
1000 nM	40.2	10.2	8.62	1.85	7.83	3.13	-5.92	5.43	4.21	4.26
10000 nM	83.9	27.1	22.8	29	20.6	17.5	24.9	17.3	24.8	45.6

Cn1cc(C[C@@H](N)C(=O)O)c2ccccc21 [1-methyl-D-tryptophan] (max concentration tested 5000 nM)
Conditions	drug sensitivity score
IMC-1 (IL-2 20 ng/mL) [4]	0
[1]	0
[11]	0
[28]	0

percent inhibition of viability [%]
Conditions	0.5 nM	5 nM	50 nM	500 nM	5000 nM
IMC-1 (IL-2 20 ng/mL) [18]	-6.61	-9.96	-5.67	-2.82	0.08
[14]	-12.1	-7.01	-8.73	0.95	6.01
[15]	-6.45	-5.59	-1.81	4.04	6.29
[25]	-7.11	-12.2	0.9	5.49	5.66

CC(C)N(C[C@H]1O[C@@H](n2cnc3c(N)ncnc32)[C@H](O)[C@@H]1O)[C@H]1C[C@@H](CCc2nc3cc(C(C)(C)C)ccc3[nH]2)C1 [Pinometostat] (max concentration tested 1000 nM)
Conditions	drug sensitivity score
IMC-1 (IL-2 20 ng/mL) [4]	0
[1]	0
[11]	0
[28]	0.26

percent inhibition of viability [%]
Conditions	0.1 nM	1 nM	10 nM	100 nM	1000 nM
IMC-1 (IL-2 20 ng/mL) [18]	-9.34	-4.07	-2.87	-4.72	3.86
[14]	-0.7	-1.47	-2.36	3.36	12.5
[15]	-6.45	6.92	6.49	-0.47	0.82
[25]	-1.26	13	2.22	1.46	-1.92

COc1cc(Nc2ncc(F)c(Nc3ccc4c(n3)N(COP(=O)(O)O)C(=O)C(C)(C)O4)n2)cc(OC)c1OC [Fostamatinib] (max concentration tested 2500 nM)
Conditions	drug sensitivity score
IMC-1 (IL-2 20 ng/mL) [4]	0.89
[1]	0.74
[11]	0
[28]	2.26

percent inhibition of viability [%]
Conditions	0.25 nM	2.5 nM	25 nM	250 nM	2500 nM
IMC-1 (IL-2 20 ng/mL) [18]	-2.94	-0.51	-4.59	-3.53	-9.62
[14]	-1.89	-6.48	-4.68	-0.77	45.3
[15]	-8.88	-12.4	-4.65	-3.71	24.9
[25]	-14	-12.5	-10.8	-5.58	4.31
